Patent US12358901B2, “KV3 modulators” (priority 2018, dated 2025)
Values joined by “and” are separate entries in the source; they are usually repeats but may differ in a detail not shown here. Equal entries are not always repeated.

Tests used:
[1] = target: human Kv3.1 channels (hKv3.1) (Homo sapiens, UniProt P48547); assay: cell-based; assay type: cell-based; settings: for Kv3.1 pEC50: HEK-hKv3.1 cells, -15 mV voltage step, normalised to 50 microM reference compound; for Kv3.1 max R %: maximum response relative to reference compound (50 microM)
Description: The ability of the compounds of the invention to modulate the voltage-gated potassium channel subtypes Kv3.3/Kv3.2/Kv3.1 may be determined using the following assay. Analogous methods may be used to investigate the ability of the compounds of the invention to modulate other channel subtypes.
To assess compound effects on human Kv3.1 channels (hKv3.1):
Human embryonic kidney (HEK)-hKv3.1 cell line is generated by transfecting HEK-293 cells with an expression vector with human Kv3.1 (NM_004976.4). Cells are cultured with MEM supplemented with 10% Heat-Inactivated FBS, 2 mM L-glutamine, 1% Penicillin-Streptomycin, and 0.6 mg/ml of Geneticin (G418). HEK-hKv3.1b cells were amplified in T175 cm2 flask at 37° C. with 5% CO2, using MEM amplification medium, containing the G418 selection antibiotic (0.6 mg/ml). Cells were detached every 3-4 days, using DPBS to wash twice the flask, then TrypLE to dislodge the cells, and re-plated at a density of 2-4×10^6 cells/flask.
The day of the experiment, cells are removed from the incubator and the culture medium removed. Cells are washed with 5 ml of Dulbecco's PBS (DPBS) calcium and magnesium free and detached by the addition of 3 ml Versene (Invitrogen, Italy) followed by a brief incubation at 37° C. for 5 minutes. The flask is tapped to dislodge cells and 10 ml of DPBS containing calcium and magnesium is added to prepare a cell suspension. The cell suspension is then placed into a 15 ml centrifuge tube and centrifuged for 2 min at 1200 rpm. After centrifugation, the supernatant is removed and the cell pellet re-suspended in 4 ml of DPBS containing calcium and magnesium using a 5 ml pipette to break up the pellet. Cell suspension volume is then corrected to give a cell concentration for the assay of approximately 3 million cells per ml.
Experiments are conducted at r.t. using IonWorks Quattro™ planar array electrophysiology technology (Molecular Devices Corp.) with PatchPlate™ PPC. Stimulation protocols and data acquisition are carried out using a microcomputer (Dell Pentium 4). Planar electrode hole resistances (Rp) are determined by applying a 10 mV voltage step across each well. These measurements are performed before cell addition. After cell addition and seal formation, a seal test is performed by applying a voltage step from −80 mV to −70 mV for 160 ms. Following this, amphotericin-B solution is added to the intracellular face of the electrode to achieve intracellular access. Cells are held at −70 mV. Leak subtraction is conducted in all experiments by applying 50 ms hyperpolarizing (10 mV) prepulses to evoke leak currents followed by a 20 ms period at the holding potential before test pulses.
For hKv3.2 and hKv3.1, assays from the holding potential of −70 mV, a first test pulse at −15 mV was applied for 100 ms and after 100 ms at −70 mV a second pulse at +40 mV was applied for 50 ms. Cells were then maintained for 100 ms at −100 mV and another pulse from −70 mV to +40 mV (duration 50 ms) was applied to clamp later the voltage at −40 mV during 200 ms
The intracellular solution contains the following (in mM): K-gluconate 100, KCl 54, MgCl2 3.2, HEPES 5, adjusted to pH 7.3 with KOH. Amphotericin-B solution is prepared as 50 mg/ml stock solution in DMSO and diluted to a final working concentration of 0.1 mg/ml in intracellular solution. The external solution is Dulbecco's Phosphate Buffered Saline (DPBS) and contained the following (in mM): CaCl2 0.90, KCl 2.67, KH2PO4 1.47, MgCl·6H2O 0.493, NaCl 136.9, Na3PO4 8.06, with a pH of 7.4.
Compounds of use in the invention (or reference compounds such as N-cyclohexyl-N-[(7,8-dimethyl-2-oxo-1,2-dihydro-3-quinolinyl)methyl]-N-phenylurea) are dissolved in dimethylsulfoxide (DMSO) at a stock concentration of 10 mM. These solutions are further diluted with DMSO using a Biomek FX (Beckman Coulter) in a 384 compound plate. Each dilution (1 μL) is transferred to another compound plate and external solution containing 0.05% pluronic acid (66 μL) is added. […]

[2] = Determination of brain tissue binding (equilibrium dialysis); assay type: in vitro ADME; settings: Sprague Dawley, rat whole brain homogenate, 5 h at 37° C.
Description: Sprague Dawley rat whole blood, collected on the week of the experiment using K3-EDTA as an anti-coagulant, is diluted with isotonic phosphate buffer 1:1 (v/v). Sprague Dawley rat whole brain, stored frozen at −20° C., is thawed and homogenised in artificial cerebrospinal fluid (CSF) 1:2 (w/v).
An appropriate amount of test compound is dissolved in DMSO to give a 10 millimolar solution. Further dilutions, to obtain a 166.7 micromolar working solution are then prepared using 50% acetonitrile in MilliQ water. This working solution is used to spike the blood to obtain a final concentration of 0.5 micromolar in whole blood. Similarly, the working solution is used to spike brain samples to obtain a final concentration of 5 micromolar in whole brain. From these spiked blood and brain preparations, control samples (n=3), are immediately extracted and used to calculate the initial recovery of the test items.
150 microL of compound-free buffer (isotonic phosphate buffer for blood or artificial CSF buffer for brain) is dispensed in one half-well and 150 microL of spiked matrix (blood or brain) is loaded in the other half-well, with the two halves separated by a semi-permeable membrane. After an equilibration period of 5 h at 37° C., 50 microL of dialysed matrix (blood or brain) is added to 50 microL of corresponding compound-free buffer, and vice-versa for buffer, such that the volume of buffer to matrix (blood or brain) remains the same. Samples are then extracted by protein precipitation with 300 microL of acetonitrile containing rolipram (control for positive ionization mode) or diclofenac (control for negative ionization mode) as internal standards and centrifuged for 10 min at 3000 rpm. Supernatants are collected (100 microL), diluted with 27% AcN in MilliQ water (200 microL) and then injected into an HPLC-MS/MS or UPLC-MS/MS system to determine the concentration of test compound present.
Blood and brain tissue binding are then determined using the following formulas: Afu=Buffer/Blood or Afu=CSF/Brain
Where Afu=apparent fraction unbound; Buffer=analyte/internal standard ratio determined in the buffer compartment; Blood=analyte/internal standard ratio determined in the blood compartment; Brain=analyte/internal standard ratio determined in the brain compartment.
[formula] where: fucr=Fraction unbound corrected; D=matrix dilution factor (D=2 for blood and D=3 for brain).
Then: % Binding=(1−fucr)×100 % Unbound=100−% Bound Brain/Blood Partition Ratio (Kbb) Determination

[3] = test system: Salmonella typhimurium (TA1535, TA1537, TA98 and TA100) and Escherichia coli WP2 uvrA (pKM101); assay: Ames testing (bacterial mutagenicity, with and without S9-mix); settings: 5 to 5000 ug/plate, absence and presence of S9-mix

Structure (SMILES)	Kv3.1 pEC50 [1]	Kv3.1 max R % [1]	fraction unbound at 5 h, 5 micromolar [2]	Ames Result (compound) [3]
CC[C@H]1NC(=O)N(c2cnc(Oc3ccc(C)c4c3C3(CC3)CO4)cn2)C1=O [Example 9, (5R)-5-ethyl-3-[5-(7-methylspiro[2H-benzofuran-3,1′-cyclopropane]-4-yl)oxypyrazin-2-yl]imidazolidine-2,4-dione]	5.88 and 5.90	172% and 146%	0.03	Non- mutagenic
CC[C@H]1NC(=O)N(c2cnc(Oc3cccc4c3C3(CC3)CO4)cn2)C1=O [Example 10, (5R)-5-ethyl-3-(5-spiro[2H-benzofuran-3,1′-cyclopropane]-4-yloxypyrazin-2-yl)imidazolidine-2,4-dione]	5.45 and 5.63	153% and 147%	0.087	Non- mutagenic
Cc1ccc(Oc2ncc(N3C(=O)NC(C)(C)C3=O)cn2)c2c1OCC21CC1 [RE5, reference compound]	5.14	158%	0.051	Non- mutagenic
CC[C@H]1NC(=O)N(c2ccc(Oc3ccc(C)c4c3C3(CC3)CO4)nc2)C1=O [RE11, reference compound]	6.1	152%	0.021	Non- mutagenic
CC[C@H]1NC(=O)N(c2ccc(Oc3cccc4c3C3(CC3)CO4)nc2)C1=O [RE13, (5R)-5-ethyl-3-(6-spiro[2H-benzofuran-3,1′-cyclopropane]-4-yloxy-3-pyridyl)imidazolidine-2,4-dione, reference compound]	6.1	149%	0.062	
